In general, Kd refers to the equilibrium constant for the complex coming apart.

The assay has as its target LytA239–252 (Streptococcus pneumoniae, UniProt P06653). Kind of assay: near-UV CD titration, ellipticity at […] nm. In kind it is binding.

Molecule `C[N+](C)(C)CCO` [choline] had a dissociation constant (Kd) of 80 ± 10 mM.

The values are drawn from article PMC4471590 (Chemistry (Weinheim an Der Bergstrasse, Germany), 2015).
